From US10793553B2, “TLR7/8 antagonists and uses thereof” (Merck Patent GmbH, priority 2017, dated 2020)

Experiments:
[1] = target: T1, TLR7 (Homo sapiens, UniProt Q9NYK1); assay: HEK TLR7 Cell Assay; type: cell-based; settings: TLR7/NFKb HEK cells, R848 agonist 10 uM final, Steady-Glo readout
T1 construct: expressed in transfected cells; host or cells: HEK cells carrying TLR7 and an NFkB luciferase reporter
T1 sequence (Q9NYK1 27-1049): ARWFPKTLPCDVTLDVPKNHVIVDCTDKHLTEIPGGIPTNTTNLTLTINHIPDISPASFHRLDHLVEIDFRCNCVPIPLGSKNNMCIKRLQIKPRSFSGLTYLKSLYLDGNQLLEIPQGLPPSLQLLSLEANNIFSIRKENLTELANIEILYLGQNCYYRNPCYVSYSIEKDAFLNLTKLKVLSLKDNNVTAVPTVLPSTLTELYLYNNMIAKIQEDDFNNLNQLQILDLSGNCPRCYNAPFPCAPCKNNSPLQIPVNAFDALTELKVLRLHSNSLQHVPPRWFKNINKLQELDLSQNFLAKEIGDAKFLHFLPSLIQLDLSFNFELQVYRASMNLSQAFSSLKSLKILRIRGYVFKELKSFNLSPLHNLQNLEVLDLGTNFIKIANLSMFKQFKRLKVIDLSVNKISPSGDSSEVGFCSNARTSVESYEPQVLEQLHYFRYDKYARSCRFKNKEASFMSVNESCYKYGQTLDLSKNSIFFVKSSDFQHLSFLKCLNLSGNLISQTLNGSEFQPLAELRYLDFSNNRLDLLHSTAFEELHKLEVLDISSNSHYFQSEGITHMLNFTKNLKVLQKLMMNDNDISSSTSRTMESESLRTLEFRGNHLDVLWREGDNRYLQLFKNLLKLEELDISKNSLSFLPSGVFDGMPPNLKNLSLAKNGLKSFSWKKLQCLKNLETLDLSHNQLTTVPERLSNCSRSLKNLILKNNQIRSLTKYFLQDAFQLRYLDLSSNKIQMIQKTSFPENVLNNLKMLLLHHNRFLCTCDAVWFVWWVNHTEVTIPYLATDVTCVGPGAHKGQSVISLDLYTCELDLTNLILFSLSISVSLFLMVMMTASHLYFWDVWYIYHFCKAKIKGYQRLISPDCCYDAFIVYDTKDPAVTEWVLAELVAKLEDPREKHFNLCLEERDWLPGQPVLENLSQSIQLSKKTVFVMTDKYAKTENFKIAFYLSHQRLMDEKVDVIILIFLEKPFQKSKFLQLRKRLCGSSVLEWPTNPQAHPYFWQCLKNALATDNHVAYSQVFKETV
Protocol: Example 24: HEK TLR7 Cell Assay
(§1) Into 384 CulturePlates (Corning 3707) was placed 5000 c/w of TLR7/NFKb HEK cells in 30 uL DMEM without Phenol red (gibco #31053) and 10% FCS-HI, 2 mM L-Glutamine, 1% Pen/Strept. The cells are incubated for 24 h at 37 degrees Celsius, and 10% carbon dioxide. Dispense 3 uL of controls, standards, and compounds to wells, incubate for 30 min then add 3 uL of R848 (10 uM final concentration) agonist in 20 mM Hepes. Incubate for 5 hours and then allow to stand at room temperature for 15 min. Add 10 uL of Steady-Glo substrate reagent and shake assay plate for 5 min at 1500 rpm. Let the assay plate sit for 30 min at room temperature and then read plate on EnVision.

[2] = target: T2, TLR8 (Homo sapiens, UniProt Q9NR97); assay: HEK TLR8 Cell Assay; type: cell-based; settings: TLR8/NFKb HEK cells, R848 agonist 30 uM final, Steady-Glo readout
T2 construct: expressed in transfected cells; host or cells: HEK cells carrying TLR8 and an NFkB luciferase reporter
T2 sequence (Q9NR97 27-1041): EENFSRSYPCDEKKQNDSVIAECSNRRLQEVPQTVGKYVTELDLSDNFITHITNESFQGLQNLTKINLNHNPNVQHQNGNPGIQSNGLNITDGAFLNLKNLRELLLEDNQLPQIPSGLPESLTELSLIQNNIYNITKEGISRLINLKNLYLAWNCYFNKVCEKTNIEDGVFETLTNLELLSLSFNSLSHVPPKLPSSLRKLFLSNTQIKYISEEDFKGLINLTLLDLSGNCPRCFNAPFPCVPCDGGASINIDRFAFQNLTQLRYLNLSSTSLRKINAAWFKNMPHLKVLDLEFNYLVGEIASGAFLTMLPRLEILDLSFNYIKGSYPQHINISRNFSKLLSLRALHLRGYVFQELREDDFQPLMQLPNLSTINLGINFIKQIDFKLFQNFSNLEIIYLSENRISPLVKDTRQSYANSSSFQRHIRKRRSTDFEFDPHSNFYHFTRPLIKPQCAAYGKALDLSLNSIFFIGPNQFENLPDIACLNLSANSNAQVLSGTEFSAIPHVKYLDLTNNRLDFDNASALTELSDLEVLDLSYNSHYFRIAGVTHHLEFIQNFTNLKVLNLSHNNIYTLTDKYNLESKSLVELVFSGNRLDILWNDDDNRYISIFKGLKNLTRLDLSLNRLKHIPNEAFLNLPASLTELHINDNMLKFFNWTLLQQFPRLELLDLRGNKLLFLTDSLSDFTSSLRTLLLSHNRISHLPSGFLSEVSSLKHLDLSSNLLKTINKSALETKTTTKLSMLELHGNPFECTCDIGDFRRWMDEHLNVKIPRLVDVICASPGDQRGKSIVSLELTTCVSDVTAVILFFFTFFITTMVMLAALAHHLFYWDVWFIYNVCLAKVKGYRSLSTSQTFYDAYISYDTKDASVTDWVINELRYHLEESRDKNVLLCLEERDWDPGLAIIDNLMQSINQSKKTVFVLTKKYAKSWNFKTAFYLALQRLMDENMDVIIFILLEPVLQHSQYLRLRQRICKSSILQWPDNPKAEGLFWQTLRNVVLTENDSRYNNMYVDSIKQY
Protocol: Example 25: HEK TLR8 Cell Assay
as §1, with “TLR8/NFKb” for “TLR7/NFKb”, “(30” for “(10”

IC50 [1]	IC50 [2]	Compound
< 1000 nM	1000 to 10000 nM	C[C@@H]1CN(c2ccc(C(F)(F)F)c3ncccc23)C[C@@H]1NC(=O)CC1CCCN(C)C1 (single isomer, unassigned) [Compound 20]
1000 to 10000 nM	> 10000 nM	Cc1ccc(N2C[C@@H](C)[C@@H](NC(=O)C(O)C3CC3)C2)c2cccnc12 (single isomer, unassigned) [Compound 46]
< 1000 nM	1000 to 10000 nM	Cc1ccc(N2C[C@@H](C)[C@@H](NC(=O)CC3CCN(C)C3)C2)c2cccnc12 (single isomer, unassigned) [Compound 37]
> 10000 nM	> 10000 nM	Cc1ccc(N2C[C@@H](C)[C@@H](N)C2)c2cccnc12 [Compound 33, (3R,4R)-4-methyl-1-(8-methylquinolin-5-yl)pyrrolidin-3-amine]
< 1000 nM	1000 to 10000 nM	Cc1ccc(N2C[C@@H](C)[C@@H](NC(=O)CC3CCCN(C)C3)C2)c2cccnc12 (single isomer, unassigned) [Compound 36]
< 1000 nM	< 1000 nM	Cc1ccc(N2C[C@@H](C)[C@@H](NC(=O)CC3CCN(C)CC3)C2)c2cccnc12 [Compound 34, N-[(3R,4R)-4-methyl-1-(8-methylquinolin-5-yl)pyrrolidin-3-yl]-2-(1-methylpiperidin-4-yl)acetamide]
> 10000 nM	> 10000 nM	NC1CN(c2ccc(C(F)(F)F)c3ncccc23)CC1F (single isomer, unassigned) [Compound 49]
< 1000 nM	< 1000 nM	Cc1ccc(N2C[C@@H](C)[C@@H](NC(=O)CC3(F)CCN(C)CC3)C2)c2cccnc12 [Compound 42, 2-(4-fluoro-1-methylpiperidin-4-yl)-N-[(3R,4R)-4-methyl-1-(8-methylquinolin-5-yl)pyrrolidin-3-yl]acetamide]
1000 to 10000 nM	1000 to 10000 nM	C[C@@H]1CN(c2ccc(C(F)(F)F)c3ncccc23)C[C@@H]1NC(=O)C(O)C1CC1 (single isomer, unassigned) [Compound 30]
1000 to 10000 nM	> 10000 nM	CC(C)[C@H](O)C(=O)N[C@H]1CN(c2ccc(C(F)(F)F)c3ncccc23)C[C@H]1C [Compound 31, (2S)-2-hydroxy-3-methyl-N-[(3R,4R)-4-methyl-1-[8-(trifluoromethyl)quinolin-5-yl]pyrrolidin-3-yl]butanamide]
1000 to 10000 nM	> 10000 nM	Cc1ccc(N2C[C@@H](C)[C@@H](NC(=O)CN3CCOCC3)C2)c2cccnc12 [Compound 39, N-[(3R,4R)-4-methyl-1-(8-methylquinolin-5-yl)pyrrolidin-3-yl]-2-(morpholin-4-yl)acetamide]
< 1000 nM	< 1000 nM	C[C@@H]1CN(c2ccc(C(F)(F)F)c3ncccc23)C[C@@H]1NC(=O)CC1CCN(C)CC1 [Compound 18, N-[(3R,4R)-4-methyl-1-[8-(trifluoromethyl)quinolin-5-yl]pyrrolidin-3-yl]-2-(1-methylpiperidin-4-yl)acetamide]
< 1000 nM	< 1000 nM	C[C@@H]1CN(c2ccc(C(F)(F)F)c3ncccc23)C[C@@H]1NC(=O)CC1CCN(C)C1 (single isomer, unassigned) [Compound 22]
1000 to 10000 nM	1000 to 10000 nM	Cc1ccc(N2C[C@@H](C)[C@@H](NC(=O)CC3CCCN(C)C3)C2)c2cccnc12 (single isomer, unassigned) [Compound 35]
< 1000 nM	1000 to 10000 nM	Cc1ccc(N2C[C@@H](C)[C@@H](NC(=O)CC3CCN(C)C3)C2)c2cccnc12 (single isomer, unassigned) [Compound 38]
< 1000 nM	< 1000 nM	C[C@@H]1CN(c2ccc(C(F)(F)F)c3ncccc23)C[C@@H]1NC(=O)CC1CCCN(C)C1 (single isomer, unassigned) [Compound 19]

Compound	IC50 [1]	IC50 [2]
C[C@@H]1CN(c2ccc(C#N)c3nccnc23)C[C@@H]1NC(=O)CC1CCN(C)CC1(F)F (single isomer, unassigned) [Compound 12]	< 1000 nM	< 1000 nM
C[C@@H]1CN(c2ccc(C#N)c3nccnc23)C[C@@H]1NC(=O)CC1CCN(C)C1 (single isomer, unassigned) [Compound 5]	< 1000 nM	< 1000 nM
C[C@@H]1CN(c2ccc(C#N)c3nccnc23)C[C@@H]1NC(=O)CC1CCN(C)CC1(F)F (single isomer, unassigned) [Compound 11]	< 1000 nM	< 1000 nM
C[C@@H]1CN(c2ccc(C#N)c3nccnc23)C[C@@H]1NC(=O)CN1CCOCC1 [Compound 7, N-[(3R,4R)-1-(8-cyanoquinoxalin-5-yl)-4-methylpyrrolidin-3-yl]-2-(morpholin-4-yl)acetamide]	1000 to 10000 nM	1000 to 10000 nM
C[C@@H]1CN(c2ccc(C#N)c3nccnc23)C[C@@H]1NC(=O)CC1(C)CCN(C)CC1 [Compound 8, N-[(3R,4R)-1-(8-cyanoquinoxalin-5-yl)-4-methylpyrrolidin-3-yl]-2-(1,4-dimethylpiperidin-4-yl)acetamide]	< 1000 nM	< 1000 nM
C[C@@H]1CN(c2ccc(C#N)c3nccnc23)C[C@@H]1NC(=O)CC1CCN(C)C1 (single isomer, unassigned) [Compound 6]	< 1000 nM	< 1000 nM
CC(C)[C@@H](O)C(=O)N[C@H]1CN(c2ccc(C#N)c3nccnc23)C[C@H]1C [Compound 16, (2R)—N-[(3R,4R)-1-(8-cyanoquinoxalin-5-yl)-4-methylpyrrolidin-3-yl]-2-hydroxy-3-methylbutanamide]	1000 to 10000 nM	1000 to 10000 nM
C[C@@H]1CN(c2ccc(C#N)c3nccnc23)C[C@@H]1NC(=O)CC1CCCN(C)C1 (single isomer, unassigned) [Compound 4]	< 1000 nM	< 1000 nM
